Test results from ChEMBL document CHEMBL4622850, “Discovery and optimization of new oxadiazole substituted thiazole RORγt inverse agonists through a bioisosteric amide replacement approach” (Bioorg Med Chem Lett, 2020).
In brackets after ≈: the same amount, converted by molar mass.

Columns and labels:
[1] = Solubility of compound by pH 2; type: physicochemical; settings: buffer
[2] = Solubility of compound by pH 7; type: physicochemical; settings: buffer
[3] = Cmax in rat at 5 mg/kg, po; type: ADME, organism-based; design: dose 5 mg/kg, route oral; settings: in vivo
[4] = AUC in rat at 5 mg/kg, po; type: ADME, organism-based; settings: in vivo
[5] = Clearance in rat at 1 mg/kg, iv; type: ADME, organism-based; settings: in vivo
[6] = Volume of distribution in rat at 1 mg/kg, iv; type: ADME, organism-based; settings: in vivo
[7] = Half life in rat at 1 mg/kg, iv; type: ADME, organism-based; settings: in vivo
[8] = Oral bioavailability in rat at 1 mg/kg; type: ADME, organism-based; settings: in vivo
[9] = target: T1, Nuclear receptor ROR-gamma (Mus musculus, UniProt P51450); assay: Inverse agonist activity at RORgammat in mouse whole blood assessed as reduction in IL-17a production; type: tissue-based
T1 sequence (P51450 whole entry): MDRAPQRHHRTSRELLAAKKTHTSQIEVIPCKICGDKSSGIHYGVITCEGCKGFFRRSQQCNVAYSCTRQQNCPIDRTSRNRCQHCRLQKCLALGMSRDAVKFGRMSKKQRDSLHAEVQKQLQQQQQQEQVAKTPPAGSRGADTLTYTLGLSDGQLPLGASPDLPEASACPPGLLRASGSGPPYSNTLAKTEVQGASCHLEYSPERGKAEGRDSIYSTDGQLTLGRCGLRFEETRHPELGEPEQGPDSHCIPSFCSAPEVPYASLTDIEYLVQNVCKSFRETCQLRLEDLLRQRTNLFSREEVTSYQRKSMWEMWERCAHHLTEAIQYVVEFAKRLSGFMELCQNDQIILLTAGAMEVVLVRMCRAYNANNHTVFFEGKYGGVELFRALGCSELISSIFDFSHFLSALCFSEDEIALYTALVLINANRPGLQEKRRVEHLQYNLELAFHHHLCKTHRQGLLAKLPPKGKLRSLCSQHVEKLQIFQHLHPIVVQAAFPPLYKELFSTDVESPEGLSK

Cytochrome P450 2C19 = Cytochrome P450 2C19 (Homo sapiens, UniProt P33261); assay: Inhibition of CYP2C19 (unknown origin); type: ADME
Chain of Cytochrome P450 2C19 (P33261 whole entry): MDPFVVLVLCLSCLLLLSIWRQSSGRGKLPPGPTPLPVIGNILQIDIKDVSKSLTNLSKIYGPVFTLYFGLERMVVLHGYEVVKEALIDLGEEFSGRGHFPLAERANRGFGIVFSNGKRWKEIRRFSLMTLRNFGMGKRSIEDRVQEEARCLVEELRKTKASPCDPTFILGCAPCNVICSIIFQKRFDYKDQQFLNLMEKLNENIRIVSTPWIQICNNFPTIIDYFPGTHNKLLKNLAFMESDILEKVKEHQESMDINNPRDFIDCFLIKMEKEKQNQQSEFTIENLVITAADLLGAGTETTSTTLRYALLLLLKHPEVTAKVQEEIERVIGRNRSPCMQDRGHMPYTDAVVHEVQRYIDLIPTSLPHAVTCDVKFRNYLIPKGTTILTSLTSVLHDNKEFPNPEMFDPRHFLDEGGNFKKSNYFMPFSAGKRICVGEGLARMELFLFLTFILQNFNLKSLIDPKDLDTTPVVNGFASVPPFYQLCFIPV

[10] = Metabolic stability in human liver microsomes assessed as half life; type: ADME, Microsome
[11] = Metabolic stability in rat liver microsomes assessed as half life; type: ADME, Microsome
[12] = Protein binding in human plasma; type: ADME, cell-free; settings: read-out: PPB (converted)
[13] = Protein binding in mouse plasma; type: ADME, cell-free; settings: read-out: PPB (converted)
[14] = Protein binding in rat plasma; type: ADME, cell-free; settings: read-out: PPB (converted)
[15] = target: T2, Nuclear receptor subfamily 1 group I member 2 (Homo sapiens, UniProt O75469); assay: Activation of PXR (unknown origin) at 1 uM; type: ADME
T2 sequence (O75469 whole entry): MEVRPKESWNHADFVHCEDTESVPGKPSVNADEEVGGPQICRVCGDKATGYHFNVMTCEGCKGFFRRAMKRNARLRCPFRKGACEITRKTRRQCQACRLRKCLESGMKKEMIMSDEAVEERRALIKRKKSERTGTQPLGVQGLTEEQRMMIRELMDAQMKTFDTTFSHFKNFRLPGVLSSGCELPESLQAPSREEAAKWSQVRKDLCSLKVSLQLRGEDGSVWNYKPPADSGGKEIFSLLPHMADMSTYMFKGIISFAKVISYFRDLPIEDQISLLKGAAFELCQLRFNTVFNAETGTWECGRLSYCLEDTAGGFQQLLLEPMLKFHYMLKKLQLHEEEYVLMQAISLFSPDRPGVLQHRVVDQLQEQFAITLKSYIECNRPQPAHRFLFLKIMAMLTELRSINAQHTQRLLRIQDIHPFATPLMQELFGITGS

CYP3A4 [16] = target: T3, CYP3A4 (Homo sapiens, UniProt P08684); assay: Inhibition of CYP3A4 (unknown origin) at 1 uM; type: ADME
T3 sequence (P08684 whole entry): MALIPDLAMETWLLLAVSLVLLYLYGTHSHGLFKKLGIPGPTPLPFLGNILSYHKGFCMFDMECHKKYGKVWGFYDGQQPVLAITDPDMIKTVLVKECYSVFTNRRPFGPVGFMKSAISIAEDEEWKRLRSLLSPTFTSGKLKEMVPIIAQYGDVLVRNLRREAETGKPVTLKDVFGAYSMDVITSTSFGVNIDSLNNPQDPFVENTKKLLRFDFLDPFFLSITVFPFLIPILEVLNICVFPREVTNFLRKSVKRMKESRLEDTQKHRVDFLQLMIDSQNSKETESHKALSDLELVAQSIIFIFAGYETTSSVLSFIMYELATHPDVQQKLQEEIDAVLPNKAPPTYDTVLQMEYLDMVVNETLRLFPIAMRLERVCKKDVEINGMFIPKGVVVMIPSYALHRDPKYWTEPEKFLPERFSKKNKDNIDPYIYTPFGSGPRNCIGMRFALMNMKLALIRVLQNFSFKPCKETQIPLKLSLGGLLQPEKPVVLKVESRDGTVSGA

CYP3A4 [17] = target: T3, CYP3A4; assay: Inhibition of CYP3A4 (unknown origin) at 10 uM; type: ADME
[18] = Plasma concentration in mouse at 30 mg/kg, po measured after 1 hr; type: ADME, organism-based
[19] = target: T4, Nuclear receptor ROR-gamma (Mus musculus) (UniProt P51450); assay: In vivo inhibition of RORgammat in mouse assessed as reduction in IL-17a production at 30 mg/kg, po measured after 1 hr relative to control; type: functional, organism-based
T4 sequence (whole entry): T1 sequence (P51450 whole entry)

[20] = Plasma concentration in mouse at 3 mg/kg, po measured after 1 hr; type: ADME, organism-based
[21] = target: T4, Nuclear receptor ROR-gamma (Mus musculus); assay: In vivo inhibition of RORgammat in mouse assessed as reduction in IL-17a production at 3 mg/kg, po measured after 1 hr relative to control; type: functional, organism-based
[22] = Cmax in rat at 1000 mg/kg, po measured on day 1; type: ADME, organism-based; design: dose 1000 mg/kg, route oral; settings: in vivo
[23] = AUC in rat at 1000 mg/kg, po measured on day 1; type: ADME, organism-based; settings: in vivo
[24] = Cmax in rat at 1000 mg/kg, po measured on day 5; type: ADME, organism-based; design: dose 1000 mg/kg, route oral; settings: in vivo
[25] = AUC in rat at 1000 mg/kg, po measured on day 5; type: ADME, organism-based; settings: in vivo
[26] = target: T2, Nuclear receptor subfamily 1 group I member 2; assay: Activation of PXR (unknown origin) at 5 uM; type: ADME
Cytochrome P450 2C9 = Cytochrome P450 2C9 (Homo sapiens, UniProt P11712); assay: Inhibition of CYP2C9 (unknown origin); type: ADME
Chain of Cytochrome P450 2C9 (P11712 whole entry): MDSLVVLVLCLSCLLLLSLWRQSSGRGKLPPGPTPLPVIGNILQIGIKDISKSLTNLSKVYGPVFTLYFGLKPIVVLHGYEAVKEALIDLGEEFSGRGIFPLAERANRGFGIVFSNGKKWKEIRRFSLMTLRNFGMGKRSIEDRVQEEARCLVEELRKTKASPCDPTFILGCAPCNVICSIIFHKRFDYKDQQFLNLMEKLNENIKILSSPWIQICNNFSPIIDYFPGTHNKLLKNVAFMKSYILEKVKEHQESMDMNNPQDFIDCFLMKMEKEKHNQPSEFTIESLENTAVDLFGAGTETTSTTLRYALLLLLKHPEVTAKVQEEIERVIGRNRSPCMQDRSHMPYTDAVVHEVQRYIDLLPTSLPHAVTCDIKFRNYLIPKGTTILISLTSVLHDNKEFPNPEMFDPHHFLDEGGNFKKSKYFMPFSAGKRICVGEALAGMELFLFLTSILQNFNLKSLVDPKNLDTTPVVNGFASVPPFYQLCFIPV

Cytochrome P450 2C8 = target: T5, Cytochrome P450 2C8 (Homo sapiens, UniProt P10632); assay: Inhibition of CYP2C8 (unknown origin); type: ADME
T5 sequence (P10632 whole entry): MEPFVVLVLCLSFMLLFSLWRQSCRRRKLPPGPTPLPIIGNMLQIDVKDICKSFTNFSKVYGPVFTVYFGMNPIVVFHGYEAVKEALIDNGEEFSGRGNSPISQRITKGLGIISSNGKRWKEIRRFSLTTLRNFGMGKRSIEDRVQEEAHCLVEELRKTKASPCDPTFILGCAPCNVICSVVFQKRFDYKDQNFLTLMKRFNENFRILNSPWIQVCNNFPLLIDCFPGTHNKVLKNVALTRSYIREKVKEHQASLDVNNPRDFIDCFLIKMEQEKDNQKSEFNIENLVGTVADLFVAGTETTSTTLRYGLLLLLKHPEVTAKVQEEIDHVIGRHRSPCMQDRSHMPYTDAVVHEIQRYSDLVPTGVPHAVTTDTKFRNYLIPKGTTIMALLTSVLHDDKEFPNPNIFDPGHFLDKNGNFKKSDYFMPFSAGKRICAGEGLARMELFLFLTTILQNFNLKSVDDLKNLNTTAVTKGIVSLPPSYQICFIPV

[27] = Plasma concentration in mouse at 30 mg/kg, po measured after 0.5 hrs; type: ADME, organism-based
[28] = Plasma concentration in mouse at 30 mg/kg, po measured after 2 hrs; type: ADME, organism-based
[29] = Plasma concentration in mouse at 30 mg/kg, po measured after 4 hrs; type: ADME, organism-based
[30] = Plasma concentration in mouse at 30 mg/kg, po measured after 7 hrs; type: ADME, organism-based
[31] = Plasma concentration in mouse at 30 mg/kg, po measured after 24 hrs; type: ADME, organism-based
[32] = target: T4, Nuclear receptor ROR-gamma (Mus musculus); assay: In vivo inhibition of RORgammat in mouse assessed as reduction in IL-17a production at 30 mg/kg, po measured after 0.5 hrs relative to control; type: functional, organism-based
[33] = target: T4, Nuclear receptor ROR-gamma (Mus musculus); assay: In vivo inhibition of RORgammat in mouse assessed as reduction in IL-17a production at 30 mg/kg, po measured after 2 hrs relative to control; type: functional, organism-based
[34] = target: T4, Nuclear receptor ROR-gamma (Mus musculus); assay: In vivo inhibition of RORgammat in mouse assessed as reduction in IL-17a production at 30 mg/kg, po measured after 4 hrs relative to control; type: functional, organism-based
[35] = target: T4, Nuclear receptor ROR-gamma (Mus musculus); assay: In vivo inhibition of RORgammat in mouse assessed as reduction in IL-17a production at 30 mg/kg, po measured after 7 hrs relative to control; type: functional, organism-based
[36] = target: T4, Nuclear receptor ROR-gamma (Mus musculus); assay: In vivo inhibition of RORgammat in mouse assessed as reduction in IL-17a production at 30 mg/kg, po measured after 24 hrs relative to control; type: functional, organism-based
[37] = Cmax in rat at 300 mg/kg, po measured on day 1; type: ADME, organism-based; design: dose 300 mg/kg, route oral; settings: in vivo
[38] = AUC in rat at 300 mg/kg, po measured on day 1; type: ADME, organism-based; settings: in vivo
[39] = Cmax in rat at 300 mg/kg, po measured on day 5; type: ADME, organism-based; design: dose 300 mg/kg, route oral; settings: in vivo
[40] = AUC in rat at 300 mg/kg, po measured on day 5; type: ADME, organism-based; settings: in vivo

solubility [1] [µM]	solubility [2] [µM]	Cmax [3] [µM]	AUC [4] [µg·h/mL]	clearance [5] [mL/min/kg]	Vd [6] [L/kg]	half-life [7] [h]	bioavailability [8] [%]	IC50 [9] [µM]	half-life [10] [h]	half-life [11] [h]	fraction unbound [12]	fraction unbound [13]	Activity [15] [%]	inhibition at 1 µM (CYP3A4 [16]) [%]	inhibition at 10 µM (CYP3A4 [17]) [%]	concentration at 1 h [18] [µM]	inhibition [19] [%]	SMILES	also measured
18 (≈ 12.2 µg/mL)	35 (≈ 23.7 µg/mL)	0.23	1.57	25	7.7	4.3	47	0.196	> 3	2.47	0.077	0.058	8.5	8.1	26	10.2	84	C[C@H](NS(=O)(=O)c1ccc(-c2sc(-c3nnc(C(C)(C)O)o3)nc2C(=O)N2CCC(F)(F)CC2)c(Cl)c1Cl)C(F)(F)F	IC50 (Cytochrome P450 2C19): 6.7 µM; fraction unbound [14]: 0.095; concentration at 1 h [20]: 0.49 µM; inhibition [21]: 69%; Cmax [22]: 24.5 µg/mL; AUC [23]: 274 µg·h/mL; Cmax [24]: 3.16 µg/mL; AUC [25]: 51 µg·h/mL
< 4	355 (≈ 208 µg/mL)	3.8	32.7	2.9	1.7	7.6	112	2.5	> 3	> 3	0.003	0.002	8.9	-1	3.4	52.1	68	CC[C@H](NS(=O)(=O)c1ccc(-c2sc(CC(C)(C)C(=O)O)nc2CC2CCC2)c(C(F)F)c1F)C(F)(F)F	Activity [26]: 21%; IC50 (Cytochrome P450 2C9): 6.3 µM; IC50 (Cytochrome P450 2C8): 1.8 µM; concentration at 0.5 h [27]: 61.4 µM; concentration at 2 h [28]: 46.4 µM; concentration at 4 h [29]: 39.7 µM; concentration at 7 h [30]: 43.1 µM; concentration at 24 h [31]: 2.2 µM; inhibition [32]: 73%; inhibition [33]: 75%; inhibition [34]: 61%; inhibition [35]: 46%; inhibition [36]: 39%; Cmax [37]: 303 µg/mL; AUC [38]: 4710 µg·h/mL; Cmax [39]: 151 µg/mL; AUC [40]: 1790 µg·h/mL
